Data from patent US20100221769A1, “ELECTROPORATIVE FLOW CYTOMETRY” (priority 2007, published 2010).

Columns and labels:
[1] = tested on: MCF-7 cells; test: EFC cell swelling during flow-through electroporation; assay type: cell-based, human
Description: Cell culture. MCF-7 and MCF-10A cell lines were obtained from American Type Culture Collection (ATCC, Manassas, Va.) and cultured according to recommended protocols. Briefly, MCF-10A cell line was cultured in DMEM F-12 supplemented with Horse Serum (5.6%), EGF (20 ng/ml), Insulin (10 μg/ml), antibiotics (1%) and Hydrocortisone (0.5 μg/ml). The MCF-7 cell line was cultured in DMEM supplemented with FBS (10%), Penicillin/streptomycin (1%) and L-glutamine (2 mM). The TPA treated MCF-7 cell line was generated by treating MCF-7 cells with 100 nM 12-O-tetradecanoylphorbol-13-acetate (TPA) for 18 hr before experiments. In order to detach cells from culture flasks, cells were treated with 0.1% Trypsin/EDTA, washed and resuspended using the electroporation buffer (10 mM Na2HPO4, […], and 250 mM sucrose). For the treatment of MCF-7 cells with colchicine, MCF-7 cells were incubated in the culture medium consisting of 10 μM colchicine (Sigma, St Louis, USA) for 30 min (Rots and Teissie, 1992, Biochim. Biophys. Acta 1111: 45-50). The cell suspension was then centrifuged and the supernatant was discarded. The cells were washed with the electroporation buffer and then resuspended in the electroporation buffer for testing. […]
Microchip operation and data collection/analysis. The microfluidic chip (shown in FIG. 10) was mounted on an IX-71 fluorescence microscope (Olympus, Melville, N.Y.) equipped with a 40× dry objective (NA=0.40) and an ORCA-285 CCD camera (Hamamatsu, Bridgewater, N.J.). […] However, because the cell size is monitored over time, the results should not be affected by the velocity, assuming mechanical effects such as shear stress can be ignored. […] In this case, the duration of electroporation was determined by the flow rate and the dimensions of the microfluidic channel. […]
For EFC tests, the images of cells were taken at a frame rate of 16 Hz. The cell size was monitored over time during electroporation by measuring the two-dimensional area (μm^2) of individual cells in time-sequenced images using ImageJ software from NIH. […]

[2] = tested on: MCF-7 cells; test: Cell viability (PI staining) after flow-through electroporation; assay type: cell-based, human; details: 0 and 200 V/cm, 200 ms, 1 hr after electroporation
[3] = tested on: MCF-7 cells; details: 100 nM for 18 hr (Johnson et al., 1999); cited from earlier work

Row | SMILES | average cell size, % of original size ([1]; 400 V/cm, 192 ms, 100 nM for 18 hr, untreated MCF-7 148%) [%] | average percentile cell size from normal distribution fit of histogram ([1]; 400 V/cm, 192 ms, about 100 cells, untreated MCF-7 150%) [%] | survival compared with MCF-10A and untreated MCF-7 [2] | increase in invasiveness and metastatic potential [3] [fold] | effect on cell deformability (swelling during electroporation vs control) ([1]; 10 μM for 30 min)
1 | CCCCCCCCCCCCCC(=O)O[C@@H]1[C@@H](C)[C@@]2(O)[C@@H](C=C(CO)C[C@]3(O)C(=O)C(C)=C[C@@H]23)[C@@H]2C(C)(C)[C@]12OC(C)=O [TPA, 12-O-tetradecanoylphorbol-13-acetate] | 170 | 170 | better survival rate | 18 | 
2 | COc1cc2c(c(OC)c1OC)-c1ccc(OC)c(=O)cc1[C@@H](NC(C)=O)CC2 [colchicine] |  |  |  |  | cell stiffening
